Measurements: US20090320869A1, “METHODS FOR PREVENTING REVERSION OF RELAXED KERATINOUS FIBERS AND FOR RELAXING KERATINOUS FIBERS” (L'Oreal, S.A.,, priority 2003, published 2009)

How the values were obtained:
Set-up in all cases: species or system human
[1] = Percent straightening / reversion of hair relaxed with 2.5% sodium hydroxide, D-xylose post-treatment and heat (Example 1); settings: for % Reversion / % Straightening: flat iron five strokes 130° C., 24 at 90% RH (25° C.)
Protocol: Virgin African-American (kinky) hair was processed and 2.5% sodium hydroxide for 20 min at room temperature. Next, the sodium hydroxide solution was washed off, the swatch was profusely rinsed with tepid water, and the treatment solution was applied for 5 min at room temperature. The treatment solutions included: water; 1% D-xylose; and 5% D-xylose. Next, the swatch was briefly rinsed to remove an excess of the treatment solution from the hair surface, blow-dried, and heat was applied in the form of five strokes with a flat iron (130° C.). The heat-treated swatch was rinsed with tepid water, air-dried at 50% RH (25° C.), and maintained for 24 at 90% RH (25° C.). The percent hair straightening (“% straightening”) was determined as follows: [formula] The percent reversion (“% reversion”)=100%−(% straightening)

[2] = Percent straightening / reversion of hair relaxed with various concentrations of sodium hydroxide, D-xylose post-treatment and heat (Example 2); settings: for % Reversion / % Straightening: flat iron 1 min 130° C., 24 h at 90% RH
Protocol: [formula] The percent reversion (“% reversion”)=100%−(% straightening) Virgin African-American (kinky) hair was processed with different concentrations of sodium hydroxide for 20 min at room temperature: 1.0%, 1.5%, 2.0%, and 2.5% NaOH, respectively. Next, the sodium hydroxide solution was washed off, the swatch was profusely rinsed with tepid water, and the treatment solution was applied for 5 min at room temperature. The treatment solutions included water and 5% D-xylose. Next, the swatch was briefly rinsed to remove an excess of the treatment solution from the hair surface, blow-dried, and heat was applied in the form of a flat iron for 1 min (130° C.). The heat-treated swatch was rinsed with tepid water, air-dried at 50% RH (25° C.), and maintained for 24 h at 90% RH (25° C.). The percent hair straightening was determined as in Example 1.

[3] = Effect of pH of D-xylose solutions on hair relaxed with 2.0% sodium hydroxide (Example 3); settings: for % Reversion / % Straightening: 2.0% NaOH + 5% D-Xylose, flat iron 1 min 130° C., 24 h at 90% RH
Protocol: [formula] The percent reversion (“% reversion”)=100%−(% straightening) Virgin African-American (kinky) hair was processed with 2.0% sodium hydroxide for 20 min at room. Next, the sodium hydroxide solution was washed off, the swatch was profusely rinsed with tepid water, and the treatment solution was applied for 10 min at 45° C. The treatment solutions included: buffer solution, pH 2.0; buffer solution, pH 6.0; buffer solution, pH 10.0; 5% D-xylose, pH 2.0; 5% D-xylose, pH 6.5; and 5% D-xylose, pH 10. The solutions were buffered using phosphoric acid and sodium hydroxide. Next, the swatch was briefly rinsed to remove an excess of the treatment solution from the hair surface, blow-dried, and heat was applied in the form of a flat iron for 1 min. (130° C.). The heat-treated swatch was rinsed with tepid water, air-dried at 50% RH (25° C.), and maintained for 24 h at 90% RH (25° C.). The percent hair straightening was determined as in Example 1.

[4] = Effect of D-xylose concentration on hair relaxed with a commercial alkali relaxer (Example 4); settings: for % Reversion / % Straightening: flat iron 1 min 175° C., 1 h at 100% RH
Protocol: [formula] The percent reversion (“% reversion”)=100%−(% straightening) Virgin African-American (kinky) hair was processed with an alkali relaxer as follows. The commercial cream relaxer was applied to a swatch of hair for 10 min at room temperature. Next, the cream was washed off, the swatch was profusely rinsed with tepid water, and the treatment solution was applied for 5 min. The treatment solutions included water; 1% D-xylose; 3% D-xylose; and 5% D-xylose. Next, the swatch was briefly rinsed to remove an excess of the treatment solution from the hair surface, blow-dried, and heat was applied in the form of a flat iron for 1 min (175° C.). The heat-treated swatch was rinsed with tepid water, air-dried at 50% RH (25° C.), and maintained for 1 h at 100% RH (25° C.). The percent hair straightening was determined as in Example 1.

[5] = Effect of D-xylose on hair relaxed with a commercial thioglycolate relaxer (Example 5); settings: for % Reversion / % Straightening: flat iron 30 sec 175° C., 1 h at 100% RH
Protocol: [formula] The percent reversion (“% reversion”)=100%−(% straightening) Virgin African-American (kinky) hair was processed with a commercial thioglycolate cream relaxer as follows. The thioglycolate cream relaxer was applied to a swatch of kinky hair for 15 min at room temperature (reduced hair). Next, the thioglycolate cream was washed off, the swatch was profusely rinsed with tepid water, and a hydrogen peroxide cream was applied for 5 min. The treatment solutions included: water and 5% D-xylose. The treatment solutions were applied either between the rinsing of the thioglycolate cream relaxer and the application of the hydrogen peroxide cream, or after the application of the hydrogen peroxide cream, respectively. The treatment solutions was applied for 5 min at room temperature. Next, the swatch was briefly rinsed to remove an excess of the treatment solution from the hair surface, blow-dried, and heat was applied in the form of a flat iron for 30 sec (175° C.). The heat-treated swatch was rinsed with tepid water, air-dried at 50% RH (25° C.), and maintained for 1 h at 100% RH (25° C.). The percent hair straightening was determined as in Example 1.

[6] = 2.5% NaOH 20 min + 1% D-Xylose 5 min
[7] = 2.5% NaOH 20 min + 5% D-Xylose 5 min
[8] = commercial alkali cream relaxer 10 min + 1% D-Xylose 5 min
[9] = commercial alkali cream relaxer 10 min + 3% D-Xylose 5 min
[10] = commercial alkali cream relaxer 10 min + 5% D-Xylose 5 min
[11] = thioglycolate reduced hair + 5% D-Xylose, then hydrogen peroxide
[12] = thioglycolate reduced hair + hydrogen peroxide, then 5% D-Xylose

O=C[C@H](O)[C@@H](O)[C@H](O)CO [D-Xylose, D-xylose]
% Reversion [1, 6]: 7.2% | % Straightening [1, 6]: 92.8% | % Reversion [1, 7]: 0% | % Straightening [1, 7]: 100% | curl reversion in relaxed kinky hair (in words) ([1]; post-treatment with a D-xylose solution, hair relaxed with 2.5% NaOH): prevented curl reversion | % Reversion ([2]; 1.0% NaOH + 5% D-Xylose): 42.9% | % Straightening ([2]; 1.0% NaOH + 5% D-Xylose): 57.1% | % Reversion ([2]; 1.5% NaOH + 5% D-Xylose): 21.4% | % Straightening ([2]; 1.5% NaOH + 5% D-Xylose): 78.6% | % Reversion ([2]; 2.0% NaOH + 5% D-Xylose): 0% | % Straightening ([2]; 2.0% NaOH + 5% D-Xylose): 100% | % Reversion ([2]; 2.5% NaOH + 5% D-Xylose): 0% | % Straightening ([2]; 2.5% NaOH + 5% D-Xylose): 100% | curl reversion in relaxed kinky hair (in words) ([2]; post-treatment with a D-xylose solution vs water, 1.0-2.5% NaOH): prevented curl reversion in the relaxed kinky hair better than post-treatment with water | % Reversion ([3]; pH 2.0, 10 min at 45° C.): 20.0% | % Straightening ([3]; pH 2.0, 10 min at 45° C.): 80.0% | % Reversion ([3]; pH 6.5, 10 min at 45° C.): 10.0% | % Straightening ([3]; pH 6.5, 10 min at 45° C.): 90.0% | % Reversion ([3]; pH 10.0, 10 min at 45° C.): 0.00% | % Straightening ([3]; pH 10.0, 10 min at 45° C.): 100% | reversion of relaxed hair (in words) ([3]; post-treatment with a D-Xylose solution vs buffer solution at various pH values): prevented reversion of the relaxed hair better than post-treatment with a buffer solution | % Reversion [4, 8]: 30.9% | % Straightening [4, 8]: 69.1% | % Reversion [4, 9]: 24.0% | % Straightening [4, 9]: 76.0% | % Reversion [4, 10]: 22.0% | % Straightening [4, 10]: 78.0% | reversion of relaxed hair (in words) ([4]; post-treatment with various concentrations of D-xylose vs water, commercial alkali relaxer): prevented reversion of the relaxed hair | reversion of relaxed hair (in words) ([5]; post-treatment with a D-xylose solution, thioglycolate hair relaxer): prevented reversion | % Reversion [5, 11]: 0.00% | % Straightening [5, 11]: 100% | % Reversion [5, 12]: 14.0% | % Straightening [5, 12]: 86.0%
